Patent publication US20150246938A1, “NOVEL OLEFIN DERIVATIVE” (SHIONOGI & CO., LTD., priority 2011, published 2015)

What follows are compounds tested against T1, recombinant human ACC2 (Homo sapiens, UniProt O00763) (assay: Measurement of inhibitory activity on human ACC2 (MALDI-TOF MS, acetyl CoA to malonyl CoA conversion)). Details: not given.
T1 construct: a cDNA encoding human ACC2 (27-2458) was cloned from human kidney cDNA library (Clontech); His-tag (N); made in house; host or cells: Sf-9 insect cells (Bac-to-Bac baculovirus)
T1 sequence (O00763 27-2458): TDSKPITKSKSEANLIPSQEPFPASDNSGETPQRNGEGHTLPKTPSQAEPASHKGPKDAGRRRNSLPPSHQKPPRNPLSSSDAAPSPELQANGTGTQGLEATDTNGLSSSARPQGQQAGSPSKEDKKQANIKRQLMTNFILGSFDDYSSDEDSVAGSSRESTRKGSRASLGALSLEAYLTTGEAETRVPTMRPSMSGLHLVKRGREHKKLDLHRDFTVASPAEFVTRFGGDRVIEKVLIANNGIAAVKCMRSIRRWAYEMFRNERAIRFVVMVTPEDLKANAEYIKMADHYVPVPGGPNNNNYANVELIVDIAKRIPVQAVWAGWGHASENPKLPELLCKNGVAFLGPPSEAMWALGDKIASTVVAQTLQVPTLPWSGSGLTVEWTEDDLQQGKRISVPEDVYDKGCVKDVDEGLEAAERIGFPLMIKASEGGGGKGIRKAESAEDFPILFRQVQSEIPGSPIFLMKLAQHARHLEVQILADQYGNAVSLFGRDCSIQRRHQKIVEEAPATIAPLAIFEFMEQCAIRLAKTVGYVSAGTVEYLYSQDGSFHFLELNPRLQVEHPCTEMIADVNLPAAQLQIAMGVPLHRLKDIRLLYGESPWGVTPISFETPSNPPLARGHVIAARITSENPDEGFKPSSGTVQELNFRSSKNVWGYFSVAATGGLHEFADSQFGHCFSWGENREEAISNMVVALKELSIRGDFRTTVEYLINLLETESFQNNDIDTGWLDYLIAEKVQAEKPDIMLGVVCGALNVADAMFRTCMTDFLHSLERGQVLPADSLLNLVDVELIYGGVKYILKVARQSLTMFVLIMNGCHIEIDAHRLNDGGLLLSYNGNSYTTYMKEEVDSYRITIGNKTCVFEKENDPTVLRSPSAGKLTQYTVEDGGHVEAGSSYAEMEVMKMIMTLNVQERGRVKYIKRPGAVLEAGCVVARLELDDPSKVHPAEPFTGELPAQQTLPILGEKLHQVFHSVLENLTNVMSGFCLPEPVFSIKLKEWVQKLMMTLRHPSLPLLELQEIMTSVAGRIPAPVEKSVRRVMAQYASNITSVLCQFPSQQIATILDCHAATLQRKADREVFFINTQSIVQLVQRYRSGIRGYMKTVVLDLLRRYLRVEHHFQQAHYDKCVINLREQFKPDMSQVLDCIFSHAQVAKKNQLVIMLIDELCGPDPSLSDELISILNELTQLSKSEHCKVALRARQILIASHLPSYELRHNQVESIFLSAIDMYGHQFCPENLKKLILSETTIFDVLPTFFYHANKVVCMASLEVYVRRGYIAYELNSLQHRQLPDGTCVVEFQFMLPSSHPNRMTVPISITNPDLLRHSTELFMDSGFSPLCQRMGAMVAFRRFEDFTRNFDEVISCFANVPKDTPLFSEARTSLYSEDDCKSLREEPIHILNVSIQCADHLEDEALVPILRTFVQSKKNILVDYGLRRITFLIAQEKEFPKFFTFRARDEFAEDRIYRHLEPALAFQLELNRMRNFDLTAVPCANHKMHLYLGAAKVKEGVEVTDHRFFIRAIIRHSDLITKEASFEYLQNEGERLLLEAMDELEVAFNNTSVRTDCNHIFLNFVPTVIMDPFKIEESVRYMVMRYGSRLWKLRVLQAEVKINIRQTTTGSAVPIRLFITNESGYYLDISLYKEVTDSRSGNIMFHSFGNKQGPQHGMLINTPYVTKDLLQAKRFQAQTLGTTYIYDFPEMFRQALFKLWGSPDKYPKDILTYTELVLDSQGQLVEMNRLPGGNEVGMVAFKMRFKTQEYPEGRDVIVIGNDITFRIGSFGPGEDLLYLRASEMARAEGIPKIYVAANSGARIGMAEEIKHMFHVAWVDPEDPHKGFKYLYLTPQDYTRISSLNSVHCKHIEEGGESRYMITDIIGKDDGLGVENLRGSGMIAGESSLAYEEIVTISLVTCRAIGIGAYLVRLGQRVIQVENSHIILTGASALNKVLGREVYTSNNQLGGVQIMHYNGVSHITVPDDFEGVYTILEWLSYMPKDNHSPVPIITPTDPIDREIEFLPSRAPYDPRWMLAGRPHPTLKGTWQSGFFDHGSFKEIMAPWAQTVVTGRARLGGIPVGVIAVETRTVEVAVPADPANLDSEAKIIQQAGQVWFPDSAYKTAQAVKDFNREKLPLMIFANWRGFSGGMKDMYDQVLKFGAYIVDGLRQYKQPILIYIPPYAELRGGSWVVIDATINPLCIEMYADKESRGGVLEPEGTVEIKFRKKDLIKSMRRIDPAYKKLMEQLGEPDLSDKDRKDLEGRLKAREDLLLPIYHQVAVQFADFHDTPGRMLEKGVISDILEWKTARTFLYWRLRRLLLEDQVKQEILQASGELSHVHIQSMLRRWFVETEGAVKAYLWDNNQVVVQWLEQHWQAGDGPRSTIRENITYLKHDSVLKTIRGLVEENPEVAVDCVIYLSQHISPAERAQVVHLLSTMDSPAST
Type: biochemical

`CCNC(=O)N[C@@H](C)/C=C/c1cnc(Oc2ccc(OCC3CC3)cc2Cl)s1` [Compound I-195] gave an IC50 of 61 nM.

Same assay, conditions: inhibition activity on human ACC2, Table 80; read-out: IC50

Going from `C[C@@H](/C=C/c1cnc(Oc2ccc(OCC3CC3)cc2Cl)s1)NC(=O)c1cccc(C#N)c1` [Compound I-155] to `COc1cccc(C(=O)N[C@@H](C)/C=C/c2cnc(Oc3ccc(OCC4CC4)cc3Cl)s2)c1` [Compound I-156], the IC50 rises from 580 nM to 930 nM (1.6-fold).

First: COc1cc(C(=O)N[C@@H](C)/C=C/c2cnc(Oc3ccc(OCC4CC4)cc3Cl)s2)ccn1 [Compound I-157]
Second: C[C@@H](/C=C/c1cnc(Oc2ccc(OCC3CC3)cc2Cl)s1)NC(=O)c1ccnc(OCC(=O)O)c1 [Compound I-248]
The IC50 of the first is 2.2-fold lower: 260 nM for the first, 580 nM for the second.

Compared with `CCOCn1ccnc1-c1cc(C(=O)N[C@@H](C)/C=C/c2cnc(Oc3ccc(OCC4CC4)cc3Cl)s2)ccn1` [Compound I-158], `C[C@@H](/C=C/c1cnc(Oc2ccc(OCC3CC3)cc2Cl)s1)NC(=O)c1ccnc(CO)c1` [Compound I-237] is 16-fold lower in IC50: 1400 nM for the first, 87 nM for the second. The second is the more potent here.

Going from `CC(=O)Nc1ncc(C(=O)N[C@@H](C)/C=C/c2cnc(Oc3ccc(OCC4CC4)cc3Cl)s2)s1` [Compound I-159] to `CC(C)ONC(=O)c1cc(C(=O)N[C@@H](C)/C=C/c2cnc(Oc3ccc(OCC4CC4)cc3Cl)s2)ccn1` [Compound I-216], the IC50 falls from 220 nM to 69 nM (3.2-fold). The second is the more potent here.

`CCCOc1ccc(Oc2ncc(/C=C/[C@H](C)NC(=O)C3(C#N)CC3)s2)c(Cl)c1` [Compound I-162] and `CCCOc1ccc(Oc2ncc(/C=C/[C@H](C)NC(=O)c3ccncc3)s2)c(Cl)c1` [Compound I-169] are within 1.5-fold of each other in IC50: 320 nM for the first, 370 nM for the second.

First: CCCOc1ccc(Oc2ncc(/C=C/[C@H](C)NC(=O)c3ccnc(N)c3)s2)c(Cl)c1 [Compound I-163]
Second: CCCOc1ccc(Oc2ncc(/C=C/[C@H](C)NC(=O)c3ccnc(C(=O)OCC)c3)s2)c(Cl)c1 [Compound I-168]
The IC50 of the first is 13-fold higher: 280 nM for the first, 22 nM for the second. The second is the more potent here.

Compared with `CCCOc1ccc(Oc2ncc(/C=C/[C@H](C)NC(=O)c3ccncc3F)s2)c(Cl)c1` [Compound I-164], `CCCOc1ccc(Oc2ncc(/C=C/[C@H](C)NC(=O)c3ccnc(N4CCOCC4)c3)s2)c(Cl)c1` [Compound I-165] is 1.7-fold lower in IC50: 850 nM for the first, 490 nM for the second. The second is the more potent here.

`C[C@@H](/C=C/c1cnn(Cc2ccc(OCC3CC3)cc2Cl)c1)NC(=O)C1CC1` [Compound I-172] and `COC(=O)N[C@@H](C)/C=C/c1cnn(Cc2ccc(OCC3CC3)cc2Cl)c1` [Compound I-183] are within 1.5-fold of each other in IC50: 600 nM for the first, 660 nM for the second.

Compared with `CCOC(=O)c1cc(C(=O)N[C@@H](C)/C=C/c2cnn(Cc3ccc(OCC4CC4)cc3Cl)c2)ccn1` [Compound I-173], `C[C@@H](/C=C/c1cnn(Cc2ccc(OCC3CC3)cc2Cl)c1)NC(=O)c1ccnc(C(N)=O)c1` [Compound I-235] is 5.1-fold higher in IC50: 59 nM for the first, 300 nM for the second. The first is the more potent here.

First: C[C@@H](/C=C/c1cnn(Cc2ccc(OCC3CC3)cc2Cl)c1)NC(=O)c1ccon1 [Compound I-174]
Second: CCNC(=O)N[C@@H](C)/C=C/c1cnn(Cc2ccc(OCC3CC3)cc2Cl)c1 [Compound I-196]
The IC50 of the first is 2.4-fold higher: 2600 nM for the first, 1100 nM for the second. The second is the more potent here.

First: C[C@@H](/C=C/c1cnc(Oc2ccc(OCC3CC3)cc2Cl)s1)NC(=O)C(F)F [Compound I-177]
Second: C[C@@H](/C=C/c1cnc(Oc2ccc(OCC3CC3)cc2Cl)s1)NC(=O)NCC(F)F [Compound I-192]
The IC50 of the first is 4.5-fold lower: 18 nM for the first, 81 nM for the second. The first is the more potent here.

Going from `CCOc1ccc(Oc2ccc(/C=C/[C@H](C)NC(=O)C(F)F)cn2)c(Cl)c1` [Compound I-179] to `CCOc1ccc(Oc2ccc(/C=C/[C@H](C)NC(N)=O)cn2)c(Cl)c1` [Compound I-184], the IC50 rises from 42 nM to 110 nM (2.6-fold). The first is the more potent here.

First: CCOc1ccc(C(F)(F)c2ccc(/C=C/[C@H](C)NC(N)=O)cn2)c(Cl)c1 [Compound I-188]
Second: CCOc1ccc(Oc2ccc(/C=C/[C@H](C)Nc3cc(C)on3)cn2)c(Cl)c1 [Compound I-203]
The IC50 of the first is 26-fold higher: 1800 nM for the first, 69 nM for the second.

`COCCNC(=O)N[C@@H](C)/C=C/c1cnc(Oc2ccc(OCC3CC3)cc2Cl)s1` [Compound I-189] and `C[C@@H](/C=C/c1cnc(Oc2ccc(OCC3CC3)cc2Cl)s1)NC(=O)NCCC(F)(F)F` [Compound I-194] are within 1.5-fold of each other in IC50: 240 nM for the first, 300 nM for the second.

First: C[C@@H](/C=C/c1cnc(Oc2ccc(OCC3CC3)cc2Cl)s1)NC(=O)NCC(F)(F)F [Compound I-193]
Second: C[C@@H](/C=C/c1cnc(Oc2ccc(OCC3CC3)cc2Cl)s1)NC(=O)c1ccnc(NCCO)c1 [Compound I-243]
The IC50 of the first is 2.9-fold lower: 140 nM for the first, 410 nM for the second.

Compared with `CCOc1ccc(Oc2ccc(/C=C/[C@H](C)Nc3cc(C)no3)cn2)c(Cl)c1` [Compound I-204], `Cc1cc(N[C@@H](C)/C=C/c2cnn(Cc3ccc(OCC4CC4)cc3Cl)c2)no1` [Compound I-205] is 42-fold higher in IC50: 38 nM for the first, 1600 nM for the second. The first is the more potent here.

Going from `C[C@@H](/C=C/c1cnc(Oc2ccc(OCC3CC3)cc2Cl)s1)NC(=O)c1ccnc(C(=O)NCCO)c1` [Compound I-206] to `C[C@@H](/C=C/c1cnc(Oc2ccc(OCC3CC3)cc2Cl)s1)NC(=O)c1ccnc(C(=O)NCCN(C)C)c1` [Compound I-214], the IC50 rises from 6.3 nM to 18 nM (2.9-fold). The first is the more potent here.

First: C[C@@H](/C=C/c1cnc(Oc2ccc(OCC3CC3)cc2Cl)s1)NC(=O)c1ccnc(C(=O)NCCN2CCOCC2)c1 [Compound I-208]
Second: C[C@@H](/C=C/c1cnc(Oc2ccc(OCC3CC3)cc2Cl)s1)NC(=O)c1ccnc(C(=O)NCCN2CCCC2)c1 [Compound I-215]
The IC50 of the first is 4.9-fold lower: 4.9 nM for the first, 24 nM for the second. The first is the more potent here.

First: C[C@@H](/C=C/c1cnc(Oc2ccc(OCC3CC3)cc2Cl)s1)NC(=O)c1ccnc(C(=O)NC2CCOCC2)c1 [Compound I-209]
Second: C[C@@H](/C=C/c1cnc(Oc2ccc(OCC3CC3)cc2Cl)s1)NC(=O)c1ccnc(NCCN2CCCC2)c1 [Compound I-244]
The IC50 of the first is 8-fold lower: 4.5 nM for the first, 36 nM for the second.

Going from `CCNC(=O)c1cc(C(=O)N[C@@H](C)/C=C/c2cnn(Cc3ccc(OCC4CC4)cc3Cl)c2)ccn1` [Compound I-233] to `C[C@@H](/C=C/c1cnn(Cc2ccc(OCC3CC3)cc2Cl)c1)NC(=O)c1ccnc(C(=O)NC(C)(C)C)c1` [Compound I-236], the IC50 falls from 44 nM to 15 nM (2.9-fold).

Going from `C[C@@H](/C=C/c1cnc(Oc2ccc(OCC3CC3)cc2Cl)s1)NC(=O)c1ccnc(OCCN2CCCC2)c1` [Compound I-242] to `C[C@@H](/C=C/c1cnc(Oc2ccc(OCC3CC3)cc2Cl)s1)NC(=O)c1ccnc(NCCCN2CCCC2=O)c1` [Compound I-246], the IC50 rises from 16 nM to 73 nM (4.6-fold). The first is the more potent here.

For `CCOC(=O)CCNc1cc(C(=O)N[C@@H](C)/C=C/c2cnc(Oc3ccc(OCC4CC4)cc3Cl)s2)ccn1` [Compound I-247], the IC50 was 430 nM.

Same assay, conditions: inhibition activity on human ACC2, untitled table (Table 81); read-out: IC50

First: CC(=O)N[C@@H](C)/C=C/c1ccc(Oc2ccc(NC(=O)CC3CC3)cc2Cl)nc1 [Compound I-251]
Second: CC(=O)N[C@@H](C)/C=C/c1ccc(Oc2ccc(NC(=O)CCCCl)cc2Cl)nc1 [Compound I-256]
The IC50 of the first is 1.9-fold higher: 96 nM for the first, 50 nM for the second. The second is the more potent here.

Compared with `CCC(C)(C)c1ccc(Oc2ccc(/C=C/[C@H](C)NC(C)=O)cn2)c(Cl)c1` [Compound I-253], `CC(=O)N[C@@H](C)/C=C/c1ccc(Oc2ccc(Cl)cc2Cl)nc1` [Compound I-273] is 5.8-fold higher in IC50: 17 nM for the first, 99 nM for the second. The first is the more potent here.

Compared with `CC(=O)N[C@@H](C)/C=C/c1ccc(Oc2ccnc(OCC3CC3)c2)nc1` [Compound I-255], `CCOc1cc(Oc2ccc(/C=C/[C@H](C)NC(C)=O)cn2)ccc1F` [Compound I-280] is 2-fold higher in IC50: 87 nM for the first, 170 nM for the second.

`COc1cc(F)cc(Oc2ccc(/C=C/[C@H](C)NC(C)=O)cn2)c1` [Compound I-257] and `CCOc1cc(F)cc(Oc2ccc(/C=C/[C@H](C)NC(C)=O)cn2)c1` [Compound I-276] are within 1.5-fold of each other in IC50: 160 nM for the first, 150 nM for the second.

`COc1ccc(F)c(Oc2ccc(/C=C/[C@H](C)NC(C)=O)cn2)c1` [Compound I-258] and `COc1cc(Oc2ccc(/C=C/[C@H](C)NC(C)=O)cn2)ccc1F` [Compound I-259] are within 1.5-fold of each other in IC50: 450 nM for the first, 400 nM for the second.

First: CC(=O)N[C@@H](C)/C=C/c1ccc(Oc2ccc3c(c2)OCC(=O)N3CC2CC2)nc1 [Compound I-260]
Second: CC(=O)N[C@@H](C)/C=C/c1ccc(Oc2ccc(C3CC3)cc2Cl)nc1 [Compound I-266]
The IC50 of the first is 5.8-fold higher: 150 nM for the first, 26 nM for the second. The second is the more potent here.

First: CC(=O)N[C@@H](C)/C=C/c1cnn(Cc2c(F)cc(OCC3CC3)cc2F)c1 [Compound I-261]
Second: CC(=O)N[C@@H](C)/C=C/c1cnn(Cc2cc(F)c(OCC3CC3)c(Cl)c2)c1 [Compound I-265]
The IC50 of the first is 2.7-fold higher: 3000 nM for the first, 1100 nM for the second. The second is the more potent here.

`CC(=O)N[C@@H](C)/C=C/c1cnn(Cc2ccc(OCC3CC3)c(Cl)c2Cl)c1` [Compound I-262] and `CC(=O)N[C@@H](C)/C=C/c1cnn(Cc2cc(Cl)c(OCC3CC3)c(Cl)c2)c1` [Compound I-264] are within 1.5-fold of each other in IC50: 660 nM for the first, 840 nM for the second.

Going from `CC(=O)N[C@@H](C)/C=C/c1ccc(Oc2ccc(-c3ccccc3)cc2Cl)nc1` [Compound I-267] to `CC(=O)N[C@@H](C)/C=C/c1ccc(Oc2ccc(-c3ncco3)cc2Cl)nc1` [Compound I-268], the IC50 rises from 44 nM to 110 nM (2.5-fold). The first is the more potent here.

Going from `CCCc1ccc(Oc2ccc(/C=C/[C@H](C)NC(C)=O)cn2)cn1` [Compound I-269] to `CCOc1ccc(F)c(Oc2ccc(/C=C/[C@H](C)NC(C)=O)cn2)c1` [Compound I-278], the IC50 falls from 120 nM to 79 nM (1.5-fold).

Compared with `COc1ccc(Oc2ccc(/C=C(\C)C(C)NC(C)=O)cn2)c(Cl)c1` (centres unmarked) [Compound I-270], `CCOc1ccc(Oc2ccc(/C=C(\C)C(C)NC(C)=O)cn2)c(Cl)c1` (centres unmarked) [Compound I-271] is 4.9-fold lower in IC50: 390 nM for the first, 79 nM for the second.

First: CC(=O)N[C@@H](C)/C=C/c1ccc(Oc2ccc(N3CCCC3=O)cc2Cl)nc1 [Compound I-272]
Second: CC#Cc1ccc(Oc2ccc(/C=C/[C@H](C)NC(C)=O)cn2)c(Cl)c1 [Compound I-275]
The IC50 of the first is 26-fold higher: 450 nM for the first, 17 nM for the second. The second is the more potent here.

Going from `CC(=O)N[C@@H](C)/C=C/c1cnc(Oc2ccc(Br)c(Cl)c2)nc1` [Compound I-274] to `CC(=O)N[C@@H](C)/C=C/c1ccc(Oc2ccc(F)c(OC(C)C)c2)nc1` [Compound I-281], the IC50 falls from 350 nM to 130 nM (2.7-fold). The second is the more potent here.

First: CC(=O)N[C@@H](C)/C=C/c1ccc(Oc2cc(F)cc(OC(C)C)c2)nc1 [Compound I-277]
Second: CC(=O)N[C@@H](C)/C=C/c1ccc(Oc2cc(OC(C)C)ccc2F)nc1 [Compound I-279]
The IC50 of the first is 3.9-fold higher: 230 nM for the first, 59 nM for the second.

First: CC(=O)NC(C)/C(C)=C/c1ccc(Oc2ccc(OCC3CC3)cc2Cl)nc1 (centres unmarked) [Compound I-282]
Second: CC(=O)NC(C)/C(C)=C/c1ccc(Oc2ccc(O)cc2Cl)nc1 (centres unmarked) [Compound I-283]
The IC50 of the first is 250-fold lower: 13 nM for the first, 3200 nM for the second.
